Measurements as given in US9492437B2, “Otamixaban for treatment of elderly and renal impaired non-ST elevation myocardial infarction patients” (SANOFI, priority 2009, dated 2016).

How the values were obtained:
[1] = test system: patients with Unstable angina/Non ST segment Elevation Myocardial infarction; settings: in vivo
Procedure: The following results are based on a randomized, double-blind triple-dummy trial to compare otamixaban to Unfractionated Heparin+eptifibatide, in patients with Unstable angina/Non ST segment Elevation Myocardial infarction scheduled to undergo an early invasive strategy.
Otamixaban arm: (Bol) 0.080 mg/Kg (I) 0.035 mg/Kg/h or 0.070 mg/Kg/h or 0.105 mg/Kg/h or 0.175 mg/Kg/h
UFH: 60 IU/Kg as IV bolus ([…]) followed by an IV infusion of 12 U/Kg/h (max 1000 IU/h) to maintain a PTT at 1.5 to 2.0 times control and at the time of the PCI additional boluses needed if the ACT is not in the range of 200-250 seconds. NB: In order for the study to be blinded, all aPTTs and ACTs performed in order to adjust Drug B (UFH/placebo) dosing will be performed using an encrypted Hemochron Signature Elite machine (or as a back-up, a local device with a third-party unblinded healthcare professional).
Eptifibatide: a single bolus of 180 mcg/kg followed by an infusion of 2 mcg/kg/min. In patients with CrCl<50 mL/min the infusion rate will be decreased to 1 mcg/kg/min.
Safety: • Non-CABG TIMI significant (Major+Minor) bleeding adjudicated by a blinded Clinical Events Adjudication Committee (CEAC) at Day 7. • Non-CABG TIMI Major bleeding adjudicated by a blinded Clinical Events Adjudication Committee (CEAC) at Day 7. • CABG-related bleeding adjudicated by a blinded Clinical Events Adjudication Committee (CEAC) at Day 7. • TIMI Major Bleeding (Non CABG+CABG) adjudicated by a blinded Clinical Events Adjudication Committee (CEAC) at Day 7. • Adjudicated TIMI Minor bleedings at Day 7 • Adjudicated Thrombotic and non-thrombotic procedural complications during the index PCI (including abrupt or threatened closure, new intracoronary thrombus, side branch closure, distal embolization, noreflow, thrombus in catheter or adherent to guidewire, coronary dissection with decreased flow, difficulty in reaching or crossing lesion, unplanned stent use, suboptimal results, coronary perforation, tamponade). All the above events will be adjudicated by a blinded Independent Adjudication Committee.

[2] = target: factor Xa assembled in the prothrombinase complex (Factor Xa, Factor Va, calcium and phospholipid) (Homo sapiens, UniProt P00742); settings: cited from earlier work
factor Xa assembled in the prothrombinase complex (Factor Xa, Factor Va, calcium and phospholipid), sequence (P00742 235-488 limits assumed): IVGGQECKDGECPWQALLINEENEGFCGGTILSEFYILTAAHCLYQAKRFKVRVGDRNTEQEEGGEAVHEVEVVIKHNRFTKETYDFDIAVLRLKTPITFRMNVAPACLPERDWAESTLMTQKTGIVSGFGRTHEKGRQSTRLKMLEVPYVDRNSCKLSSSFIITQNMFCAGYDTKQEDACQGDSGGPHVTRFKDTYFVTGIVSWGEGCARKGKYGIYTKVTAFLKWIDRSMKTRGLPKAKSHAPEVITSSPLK
factor Xa assembled in the prothrombinase complex (Factor Xa, Factor Va, calcium and phospholipid), sequence (P00742 41-179 limits assumed): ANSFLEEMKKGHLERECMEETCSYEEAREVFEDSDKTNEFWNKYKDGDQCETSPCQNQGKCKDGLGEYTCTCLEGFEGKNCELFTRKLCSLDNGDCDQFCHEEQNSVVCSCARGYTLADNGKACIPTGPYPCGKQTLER
factor Xa assembled in the prothrombinase complex (Factor Xa, Factor Va, calcium and phospholipid), sequence (P12259 29-737 partner limits assumed): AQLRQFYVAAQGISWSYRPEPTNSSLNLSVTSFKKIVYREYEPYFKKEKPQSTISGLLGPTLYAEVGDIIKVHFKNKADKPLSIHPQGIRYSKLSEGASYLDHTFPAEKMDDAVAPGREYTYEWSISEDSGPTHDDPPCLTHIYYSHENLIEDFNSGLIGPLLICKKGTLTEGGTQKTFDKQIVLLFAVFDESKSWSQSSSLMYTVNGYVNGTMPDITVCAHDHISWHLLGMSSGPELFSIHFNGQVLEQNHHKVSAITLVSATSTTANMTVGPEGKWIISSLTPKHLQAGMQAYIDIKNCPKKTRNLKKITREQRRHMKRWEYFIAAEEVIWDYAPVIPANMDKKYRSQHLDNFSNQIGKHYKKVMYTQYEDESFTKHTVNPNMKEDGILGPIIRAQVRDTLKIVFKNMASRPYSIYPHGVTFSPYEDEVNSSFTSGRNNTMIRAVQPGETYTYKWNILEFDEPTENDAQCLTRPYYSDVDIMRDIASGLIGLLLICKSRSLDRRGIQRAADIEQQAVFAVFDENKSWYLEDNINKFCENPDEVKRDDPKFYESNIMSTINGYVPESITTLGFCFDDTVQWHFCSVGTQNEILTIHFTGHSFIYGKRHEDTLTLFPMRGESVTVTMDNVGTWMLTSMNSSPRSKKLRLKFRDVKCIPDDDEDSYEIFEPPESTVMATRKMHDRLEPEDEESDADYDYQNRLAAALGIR
factor Xa assembled in the prothrombinase complex (Factor Xa, Factor Va, calcium and phospholipid), sequence (P12259 1574-2224 partner limits assumed): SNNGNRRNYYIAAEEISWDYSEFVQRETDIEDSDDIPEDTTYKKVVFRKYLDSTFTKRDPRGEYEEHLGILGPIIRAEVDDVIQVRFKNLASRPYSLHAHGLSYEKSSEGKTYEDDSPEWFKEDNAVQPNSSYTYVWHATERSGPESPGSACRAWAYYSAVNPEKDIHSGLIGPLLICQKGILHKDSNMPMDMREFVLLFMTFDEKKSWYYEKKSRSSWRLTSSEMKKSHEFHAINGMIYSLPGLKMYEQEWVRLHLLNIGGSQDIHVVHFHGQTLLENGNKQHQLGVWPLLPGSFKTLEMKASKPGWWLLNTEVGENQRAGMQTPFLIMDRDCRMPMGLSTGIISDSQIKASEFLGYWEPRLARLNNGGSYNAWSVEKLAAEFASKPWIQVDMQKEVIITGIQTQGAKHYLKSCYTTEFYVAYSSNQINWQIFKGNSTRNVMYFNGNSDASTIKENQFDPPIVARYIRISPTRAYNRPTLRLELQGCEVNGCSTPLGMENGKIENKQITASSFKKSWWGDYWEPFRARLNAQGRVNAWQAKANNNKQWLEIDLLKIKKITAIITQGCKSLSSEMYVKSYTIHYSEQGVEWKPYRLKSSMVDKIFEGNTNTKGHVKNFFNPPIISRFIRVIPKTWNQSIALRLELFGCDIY

## COC(=O)C(Cc1cccc(C(=N)N)c1)[C@@H](C)NC(=O)c1ccc(-c2cc[n+]([O-])cc2)cc1 (mixture of isomers) [Otamixaban, (2R,3R)-2-(3-Carbamimidoyl-benzyl)-3-[4-(1-oxy-pyridin-4-yl)benzoylamino]-butyric acid methyl ester]
[1]; human
  bleeding rate among subgroups (age, baseline creatinine clearance, body weight): did not show any increase of the bleeding rate
[1]; 0.105 mg/kg
  rates of TIMI major as compared to UFH+eptifibatide: numerically higher
  rates of TIMI minimal as compared to UFH+eptifibatide: numerically higher
  rates of TIMI minor (for patients without TIMI major) as compared to UFH+eptifibatide: lower
[1]; 0.175 mg/kg
  TIMI significant bleeding: excessive
[2]
  inhibition of factor Xa assembled in the prothrombinase complex: inhibited
